According to patent publication US12109184B2, “Personalized methods of treating cancer” (CANCER RESEARCH TECHNOLOGY LIMITED, priority 2020, dated 2024):

Experiments:
Type in all cases: cell-based
[1] = test system: HCT116, SW480 and MDA-MB-468 cells; test: Cell counting during cysteine starvation, starvation-resistant cell lines
Procedure: (§1) The base medium formulation contained 0.2 mM L-histidine, 0.4 mM L-isoleucine, 0.4 mM L-leucine, 0.4 mM L-lysine, 0.2 mM L-phenylalanine, 0.4 mM L-threonine, 0.08 mM L-tryptophan, 0.4 mM L-valine, 0.2 mM L-arginine, 2 mM L-glutamine, 0.2 mM L-tyrosine, 0.4 mM L-alanine, 0.3 mM L-proline, 0.15 mM L-glutamic acid, 0.1 mM L-aspartic acid, 0.2 mM L-asparagine, and 0.4 mM glycine.
(§2) DAPI-stained cell nuclei were detected via microscopy.
(§3) AMD1 inhibitor sardomozide/SAM486A, GPX4 inhibitor RSL3, and CSE inhibitor beta-cyano-L-alanine were used.
(§4) For experiments using spermine oxidase (SMOX) and polyamine oxidase (PAOX) inhibitors or MTOB, cells were pre-treated with stated concentrations for 16 hours in complete medium. After pre-treatment, cells were washed in PBS, and treatment was continued in complete or cysteine-free medium for stated times. After treatment was finished, cells were fixed and stained as described above. For experiments using MTA, polyamines, GPX4 and CSE inhibitors, treatment started at the same time as cysteine starvation. For experiments involving hypoxic conditions, cells were seeded in normoxic conditions and allowed to adhere for 24 hours before control and cysteine starvation medium was added and cells were immediately transferred either to a humidified cell culture incubator set to 37° C. in 20% O2 (normoxia), or a hypoxia chamber set to 37° C. in 1% O2 (hypoxia) for the stated times. Cells were fixed immediately and stained as described above.

[2] = test system: MTAP-deleted HCT116 cells; test: Cell counting during cysteine starvation, MTAP-deleted HCT116; settings: ferrostatin
Description: [NT] Successfully transfected cells were selected with puromycin and grown as clonal colonies. Clones were selected based initially on MTA efflux measured by liquid chromatography mass spectrometry (LC-MS). Clones with greatest MTA efflux were selected, and methylthioadenosine phosphorylase knockout (MTAP-KO) was then confirmed by western blot. MTAP-KO HCT116 cells were transfected with pCMV-Hygro-MTAP and pCMV-Hygro-negative control vector, selected using hygromycin B, and grown as clonal colonies. Clones were selected based initially on MTA efflux measured by LC-MS. Clones with low MTA efflux were selected, then MTAP re-expression was confirmed by western blot. […] DAPI-stained cell nuclei were detected via microscopy. […] For experiments using spermine oxidase (SMOX) and polyamine oxidase (PAOX) inhibitors or MTOB, cells were pre-treated with stated concentrations for 16 hours in complete medium. After pre-treatment, cells were washed in PBS, and treatment was continued in complete or cysteine-free medium for stated times. After treatment was finished, cells were fixed and stained as described above. For experiments using MTA, polyamines, GPX4 and CSE inhibitors, treatment started at the same time as cysteine starvation. For experiments involving hypoxic conditions, cells were seeded in normoxic conditions and allowed to adhere for 24 hours before control and cysteine starvation medium was added and cells were immediately transferred either to a humidified cell culture incubator set to 37° C. in 20% O2 (normoxia), or a hypoxia chamber set to 37° C. in 1% O2 (hypoxia) for the stated times. Cells were fixed immediately and stained as described above.

[3] = test system: MDA-MB-231, MIAPaCa-2 and PANC-1 cells; test: Cell counting during cysteine starvation, starvation-sensitive cell lines; settings: ferrostatin 1 μM
Procedure: as §1, §2, §3, §4

| Structure (SMILES) | response to CSE inhibition during cysteine starvation ([1]; HCT116, CSE inhibitor 0.5 mM or 1 mM, 48 h) | sensitivity to cysteine starvation ([1]; SW480 and MDA-MB-468, CSE inhibitor 0.5 mM or 1 mM, 48 h) | impact on response to cysteine starvation ([1]; more resistant cells, ferrostatin 1 μM, 24 h and 72 h) | rescue of increased sensitivity to cysteine starvation [2] | proliferation during cysteine starvation [3] | cell death in response to cysteine starvation ([3]; sensitive cells, 24 h and 72 h) |
| --- | --- | --- | --- | --- | --- | --- |
| N#CC[C@H](N)C(=O)O [beta-cyano-L-alanine] | only a modest response | increased the sensitivity to cysteine starvation | – | – | – | – |
| CCOC(=O)c1ccc(NC2CCCCC2)c(N)c1 [ferrostatin, ferrostatin-1] | – | – | little impact | rescued | did not restore proliferation | prevented cell death |
